Results taken from patent US7211278B2, “Treating method for suppressing hair growth” (Kao Corporation, priority 1999, dated 2007).
Each block holds one molecule with its values, some of them ahead of it. Peptide text beside a SMILES is read from it.

Tests used:
[1] = target: T1, neutral endopeptidase of cultivated human fibroblast (Homo sapiens, UniProt P08473); experiment: Inhibition test on neutral endopeptidase activity of cultivated human fibroblast; type: biochemical; conditions: enzyme solution from human fibroblast, substrate glutaryl-Ala-Ala-Phe-4-methoxy-2-naphthylamine
T1 construct: followed by ultrasonic pulverization, whereby an enzyme solution was obtained; host or cells: normal human fibroblasts, Triton X-100 lysate after sonication
T1 sequence (P08473 whole entry): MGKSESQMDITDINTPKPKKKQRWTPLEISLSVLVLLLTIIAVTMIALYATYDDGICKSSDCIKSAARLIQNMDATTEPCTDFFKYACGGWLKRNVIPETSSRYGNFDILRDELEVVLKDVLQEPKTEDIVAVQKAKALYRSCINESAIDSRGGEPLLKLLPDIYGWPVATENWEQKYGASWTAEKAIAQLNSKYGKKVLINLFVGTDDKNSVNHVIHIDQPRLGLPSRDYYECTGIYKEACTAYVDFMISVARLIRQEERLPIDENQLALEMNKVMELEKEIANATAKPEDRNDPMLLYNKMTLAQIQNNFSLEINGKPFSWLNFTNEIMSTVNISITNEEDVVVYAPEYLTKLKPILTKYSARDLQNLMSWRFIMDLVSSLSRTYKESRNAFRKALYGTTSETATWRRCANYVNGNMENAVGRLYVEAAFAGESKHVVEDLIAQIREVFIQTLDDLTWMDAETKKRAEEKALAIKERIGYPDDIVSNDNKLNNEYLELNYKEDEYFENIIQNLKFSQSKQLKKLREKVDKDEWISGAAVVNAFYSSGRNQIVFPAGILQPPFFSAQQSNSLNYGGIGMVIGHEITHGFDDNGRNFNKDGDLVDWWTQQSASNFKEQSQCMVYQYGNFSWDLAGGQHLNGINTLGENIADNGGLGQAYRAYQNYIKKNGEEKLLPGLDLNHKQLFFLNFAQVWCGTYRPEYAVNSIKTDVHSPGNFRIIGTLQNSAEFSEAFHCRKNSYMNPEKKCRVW
Description: Test 1 Inhibition Test on Neutral Endopeptidase Activity of Cultivated Human Fibroblast
Normal human fibroblast commercially available from Dainippon Pharmaceutical Co., Ltd. was subcultured on a DME medium containing 10% bovine fatal serum and provided for the present test. The cells peeled by a rubber-policeman from a Petri dish were floated in a phosphate-buffered physiological saline, collected by a low-velocity centrifuge, and washed three times with the same physiological saline. The cells were floated in a 0.1% Triton X-100/0.2M tris-HCl buffer (pH 8.0), followed by ultrasonic pulverization, whereby an enzyme solution was obtained.
The enzyme activity was measured as follows: To 100 μL of an MES buffer (100 mM, pH 6.5) added with sodium chloride (300 mM), were added 2 μL of the enzyme solution, 1 μL of a solution of the invention compound and, as a substrate for the measurement of enzyme activity, 1 μL of 20 mM glutalyl-Ala-Ala-Phe-4-methoxy-2-naphthylamine, followed by reaction at 37° C. for 1 hour. Phosphoramldon was added to the reaction mixture to give its final concentration of 0.4 μM and then, the reaction was terminated. Aminopeptidase M having a final concentration of 20 mU was added to the reaction mixture and the resulting mixture were reacted at 37° C. for 15 minutes. The amount of the resulting 4-methoxy-2-naphthylamine was determined by measuring the fluorescent strength at excited wavelength of 340 nm and fluorescent wavelength of 425 nm by a fluorospectrophotometer and % inhibition of the compound against enzyme activity was determined.

C3H mice = experiment: Hair growth test (2) using mice; type: in vivo
Method: (1) Preparation of a Test Sample
Each of Compounds 1 to 3 and 7 was dissolved in a 50% ethanol solution, whereby a 1 mM solution was prepared.
Papain powder (produced by CALBIOCHEM-NOVABIOCHEM CORPORATION) was dissolved in purified water to prepare a 2% aqueous solution, followed by the addition of an equal amount of ethanol to prepare a 1% ethanol solution.
Trypsin powder (produced by Sigma Aldrich Corporation) was dissolved in Hanks' Balanced Salt Solution (produced by Gibco BRL) having 1 mM EDTA-4Na dissolved therein, followed by the addition of an equal amount of ethanol to prepare a 1% ethanol solution.
Chymotrypsin powder (produced by Sigma Aldrich Corporation) was treated in a manner similar to that employed for trypsin, whereby a 1% ethanol solution was prepared.
The back of 6-week-old C3H mice (each group consisting of 5 mice) was, shaved by 2×4 cm^2 by electric hair clippers or an electric shaver so as not to injure its skin. The sample was applied in an amount of 100 μL/once to the shaved portion twice a day for 4 weeks. To a control group, only a solvent was applied. Three weeks after depilation, the picture of the shaved portion was taken at a fixed magnification in order to observe the regrowth hair and the area of the hair regrowth (area of regrowth hair/shaved area) was compared with that of the control group by using an image analyzer.

[2] = compound 1 mM alone (Solvent column), 100 μL twice a day on shaved back
[3] = compound 1 mM combined with Papain 1%, 100 μL twice a day
[4] = proteolytic enzyme 1% alone (Solvent), 100 μL twice a day

inhibition at 100 µM ([1]; concentration 0.1 mM): 69.5 ± 4.3%
Molecule: O=C(O)CCNC(=O)C(Cc1ccccc1)C(=O)O (centres unmarked) [Compound 12]

inhibition at 1000 µM ([1]; concentration 1 mM): 49.3 ± 1.2%
Molecule: O=C(O)CC(=O)N[C@@H](Cc1ccccc1)C(=O)O [Compound 13]

% inhibition ([1]; concentration 1 mM): 85.4%
Molecule: Phe-Asp

% inhibition ([1]; concentration 1 mM): 49.4%
Molecule: Phe-Gly

% inhibition ([1]; concentration 1 mM): 72.9%
Molecule: Phe-Leu

% inhibition ([1]; concentration 1 mM): 85.7%
Molecule: Phe-Phe

% inhibition ([1]; concentration 0.1 mM): 92.6%
Molecule: Phe-β-Ala

The remaining lines, values behind:

Molecule: COC(=O)[C@H](Cc1ccccc1)NC(=O)[C@@H](N)CC(=O)O [Aspartame, Asp-Phe-OMe (aspartame)] (H-Asp-Phe-OMe)
inhibition at 1000 µM ([1]; concentration 1 mM): 30.2%

Molecule: CC(C)CC(NP(=O)(O)CCc1ccccc1)C(=O)NC(Cc1c[nH]c2ccccc12)C(=O)O (centres unmarked) [Compound 2]
Hair growth inhibition 3 weeks after depilation (C3H mice; [2]): 59.1
Hair growth inhibition 3 weeks after depilation (C3H mice; [3]): 80.3

Molecule: O=C(O)CCNC(=O)C(CS)Cc1ccccc1 (centres unmarked) [Compound 7]
Hair growth inhibition 3 weeks after depilation (C3H mice; [2]): 59.7
Hair growth inhibition 3 weeks after depilation (C3H mice; [3]): 77.9

Molecule: CCOC(=O)CNC(=O)CC(=O)OCC [Compound 8]
inhibition at 1000 µM ([1]; concentration 1 mM): 23.8 ± 2.7%

Molecule: CCOC(=O)CNC(=O)C(Cc1ccccc1)C(=O)OCC (centres unmarked) [Compound 9]
inhibition at 100 µM ([1]; concentration 0.1 mM): 74.5 ± 9.3%

Molecule: O=C(O)CNC(=O)C(Cc1ccccc1)C(=O)O (centres unmarked) [Compound 10]
inhibition at 100 µM ([1]; concentration 0.1 mM): 91.2 ± 3.7%

Molecule: CCOC(=O)CNC(=O)C(Cc1ccc(-c2ccccc2)cc1)C(=O)OCC (centres unmarked) [Compound 11]
inhibition at 100 µM ([1]; concentration 0.1 mM): 85.7 ± 2.2%

Molecule: Asp-Phe
% inhibition ([1]; concentration 1 mM): 45.7%

Molecule: Chymotrypsin
Hair growth inhibition 3 weeks after depilation (C3H mice; [4]): 20.1

Molecule: Trypsin
Hair growth inhibition 3 weeks after depilation (C3H mice; [4]): 25.6

B1: Papain: proteolytic enzyme, papain powder (CALBIOCHEM-NOVABIOCHEM), 1% ethanol solution (protein, UniProt P00784 134-345, looked up)
Papain: IPEYVDWRQKGAVTPVKNQGSCGSCWAFSAVVTIEGIIKIRTGNLNEYSEQELLDCDRRSYGCNGGYPWSALQLVAQYGIHYRNTYPYEGVQRYCRSREKGPYAAKTDGVRQVQPYNEGALLYSIANQPVSVVLEAAGKDFQLYRGGIFVGPCGNKVDHAVAAVGYGPNYILIKNSWGTGWGENGYIRIKRGTGNSYGVCGLYTSSFYPVKN
Hair growth inhibition 3 weeks after depilation (C3H mice; [4]): 17.3
